Measurements: patent publication US9096536B2, “Asymmetrically substituted anthrapyridazone derivatives as cytostatics” (BS-154 S.P. ZO.O., priority 2011, dated 2015)
Values after ≈ are worked out from the molar mass of the structure shown. Like-named read-outs stand apart in the source and are kept apart here.

How the values were obtained:
[1] = tested on: HT29/MIT; experiment: Cytostatic activity in vitro, mitoxantrone-induced resistant subline HT29/MIT; assay type: cell-based, human; details: for IC50: 72 h continuous exposure; for RI resistance index HT29/MIT: IC50(resistant cells)/IC50(sensitive cells), HT29/MIT vs HT29
From the text: (§1) Table 7 presents activity in vitro of selected anthrapyridazone derivatives according to the invention towards sensitive and resistant (MDR-1 type) cell line of human colon adenocarcinoma with resistance induced by mitoxantrone.

[2] = tested on: HL60/VINC; experiment: Cytostatic activity in vitro, vincristine-induced resistant subline (MDR-1); assay type: cell-based, human; details: for RI resistance index HL60/VINC: HL60/VINC vs HL60, 72 h
From the text: (§2) Tables 3 and 4 show cytostatic activity in vitro of 2,6-disubstituted and 2- or 6-monosubstituted (Tab.3), and of 2,5-disubstituted-(Tab.-4) tetracyclic anthrapyridazone derivatives using leukemia cell line HL-60 and the resistant cell sublines with resistance induced by vincristine (MDR-1) or doxorubicin (MRP). Activity of compounds is differentiated depending on their structure, but in all cases resistance indexes are more advantageous in comparison with reference compounds: doxorubicin and mitoxantrone.

[3] = tested on: human breast cancer cell line MCF7; experiment: Cytostatic activity in vitro, breast cancer MCF7; assay type: cell-based; details: 72 h continuous exposure
From the text: (§3) It should be mentioned that resistance index is above one order of magnitude better in comparison with doxorubicin and mitoxantrone.

[4] = tested on: human prostate cancer cell line DU145; experiment: Cytostatic activity in vitro, prostate cancer DU145; assay type: cell-based; details: 72 h continuous exposure
From the text: (§4) Table 5 presents activity in vitro of anthrapiridazone derivatives towards three cell lines of prostate cancer, naturally multidrug resistant, in comparison with references doxorubicin, mitoxantrone and taxol.

[5] = tested on: human promyelocytic leukemia cell line HL-60; experiment: Cytostatic activity in vitro, HL-60 sensitive line; assay type: cell-based; details: read-out: HL60 IC50
From the text: as §2

[6] = tested on: CT-DNA; experiment: Interaction with isolated CT-DNA, fluorescence competition with ethidium bromide; assay type: binding; details: for IC50: 50% decrease in fluorescence intensity of DNA-bromide ethydine complex; for Kapp relative constant of DNA-compound bonding: Kapp = (1.26/C50) × KEtBr, KEtBr = 10^7M
From the text: It could be supposed that this property explains cytostatic activity of compounds. In Table 9 there are presented quantitative data on the affinity to DNA of tested compounds using the fluorescence method and competitive affinity to DNA of bromine ethydine and tested compounds.

[7] = tested on: HL60/VINC; experiment: Substrate properties: activity against HL60/VINC in the presence of cyclosporine A (MDR-1 pump inhibitor); assay type: cell-based, human; details: FIG. 2
From the text: FIG. 2 shoes experimentally determined substrate properties of selected antgraoyridazone derivatives vs. Doxorubicin and Mitroxantrone. Activity in vitro against human promyelacytic leykemia cell line HL60/VINC in the presence of cyclosporine A (MDR-1 pump inhibitor).

[8] = tested on: MCF7/DX; experiment: Cytostatic activity in vitro, resistant breast cancer subline MCF7/DX (MDR-1); assay type: cell-based, human; details: for IC50: 72 h continuous exposure; for RI resistance index MCF7/DX: IC50(resistant cells)/IC50(sensitive cells), MCF7/DX vs MCF7
From the text: as §3

[9] = tested on: HL60/DX; experiment: Cytostatic activity in vitro, doxorubicin-induced resistant subline (MRP); assay type: cell-based, human; details: for RI resistance index HL60/DX: IC50(resistant cells)/IC50(sensitive cells)
From the text: as §2

[10] = tested on: human prostate cancer cell line PC3; experiment: Cytostatic activity in vitro, prostate cancer PC3; assay type: cell-based; details: 72 h continuous exposure
From the text: as §4

[11] = tested on: human colon adenocarcinoma HT29; experiment: Cytostatic activity in vitro, colon adenocarcinoma HT29; assay type: cell-based; details: 72 h continuous exposure
From the text: as §1

[12] = tested on: HL60/DX; experiment: Substrate properties: activity against HL60/DX in the presence of BSO (MRP pump inhibitor); assay type: cell-based, human; details: FIG. 3
From the text: Activity in vitro against human promyelolytic leukemia HL60/DX in the presence of D-L-buthionine-(S,R)-sulphoximine (BSO), MRP pump inhibitor.

[13] = tested on: human prostate cancer cell line LNCaP; experiment: Cytostatic activity in vitro, prostate cancer LNCaP; assay type: cell-based; details: 72 h continuous exposure
From the text: as §4

[14] = tested on: uterus cancer MES-SA; experiment: Cytostatic activity, panel: uterus cancer MES-SA; assay type: cell-based; details: 72 h continuous exposure; for IC50: Homo sapiens, MES-SA
From the text: (§5) Tables 8A and 8B present cytostatic activity in vitro of selected anthrapyridazone derivatives according to the invention against panel of sensitive and resistant cell lines, in comparison with doxorubicin, cisplatine and mitoxantrone.

[15] = tested on: CEM/C2; experiment: Cytostatic activity, panel: CEM/C2 resistant to camptotecine; assay type: cell-based; details: for RI CCRF-CEM CEM/C2: IC50(resistant cells)/IC50(sensitive cells)
From the text: as §5

[16] = tested on: promyelolytic leukemia HL-60; experiment: Cytostatic activity, panel: promyelolytic leukemia HL-60; assay type: cell-based; details: 72 h continuous exposure
From the text: as §5

[17] = tested on: LoVo/DX; experiment: Cytostatic activity, panel: LoVo/DX resistant to doxorubicin; assay type: cell-based; details: for RI LoVo LoVo/DX: IC50(resistant cells)/IC50(sensitive cells); for IC50: LoVo/DX
From the text: as §5

[18] = tested on: colon cancer LoVo; experiment: Cytostatic activity, panel: colon cancer LoVo; assay type: cell-based; details: 72 h continuous exposure; for IC50: Homo sapiens, LoVo
From the text: as §5

[19] = tested on: MES-SA/DX5; experiment: Cytostatic activity, panel: MES-SA/DX5 resistant to doxorubicin; assay type: cell-based; details: for IC50: Homo sapiens, MES-SA/Dx5; for RI MES-SA MES-SA/DX5: IC50(resistant cells)/IC50(sensitive cells)
From the text: as §5

[20] = tested on: lymphoblastic leukemia CCRF-CEM; experiment: Cytostatic activity, panel: lymphoblastic leukemia CCRF-CEM; assay type: cell-based; details: 72 h continuous exposure
From the text: as §5

[21] = tested on: HL60/MX2; experiment: Cytostatic activity, panel: HL60/MX2 resistant to mitoxantrone; assay type: cell-based; details: for RI HL60 HL60/MX2: IC50(resistant cells)/IC50(sensitive cells)
From the text: as §5

[22] = IC50(resistant cells)/IC50(sensitive cells)
[23] = Homo sapiens, HL60/vinc, 72 h continuous exposure
[24] = Homo sapiens, HL-60, 50% inhibition of cell growth after 72 h continuous exposure
[25] = Homo sapiens, HL-60, 72 h continuous exposure
[26] = Homo sapiens, HL-60, 96 h continuous exposure

IC50 [6] | Compound | RI resistance index HT29/MIT [1] | RI resistance index HL60/VINC [2, 22] | Kapp relative constant of DNA-compound bonding [6] | Effect of blocking MDR-1 pump with cyclosporine A (CSA) on cytostatic activity [7] | RI resistance index MCF7/DX [8] | RI resistance index HL60/DX ([9]; HL60/DX vs HL60, 72 h) | Effect of MRP protein inhibitor (BSO) on cytostatic activity [12] | IC50 ([1]; Homo sapiens, HT-29) | IC50 [2, 23] | IC50 [14] | RI CCRF-CEM CEM/C2 [15] | IC50 ([3]; Homo sapiens, MCF7) | IC50 ([4]; Homo sapiens, DU-145) | IC50 [5, 24] | RI LoVo LoVo/DX [17] | IC50 ([17]; 72 h continuous exposure) | IC50 [18] | IC50 ([8]; Homo sapiens, MCF7/DX) | RI MES-SA MES-SA/DX5 [19] | further results
260 ± 20 nM | CN(C)CCn1nc2c3c(c(NCCN)ccc3c1=O)C(=O)c1ccccc1-2 [BS-121, 2-[2-(Dimethylamino)ethyl]-6-[2-(aminoethyl)amino)-2,7-dihydro-3H-dibenzo[de,h]cynnoline-3,7-dione] | 4.1 | 10.9 | 4.83e+07 M⁻¹ | does not essentially affect the cytostatic activity | 1.1 | 433.8 | only partially | – | – | – | – | – | – | – | – | – | – | – | – | IC50 [1]: 39.4 ± 4.3 nM; IC50 ([2]; 72 h continuous exposure): 14.2 ± 1.7 nM; IC50 [3]: 39.6 ± 0.8 nM; IC50 [4]: 11.3 ± 2.6 nM; IC50 ([5]; 50% inhibition of cell growth after 72 h continuous exposure): 1.3 ± 0.1 nM; IC50 [8]: 45.3 ± 8.1 nM; IC50 ([9]; 72 h continuous exposure): 564 ± 72 nM; IC50 [10]: 37.6 ± 8.1 nM; IC50 [11]: 9.7 ± 1 nM; IC50 [13]: 5.5 ± 0.7 nM
80 nM | COc1cccc2c1C(=O)c1c(O)c3c(c(O)c1C2=O)C[C@@](O)(C(=O)CO)C[C@@H]3O[C@H]1C[C@H](N)[C@H](O)[C@H](C)O1 [Doxorubicin, reference compound] | 1.5 | 55.1 | 1.5e+08 M⁻¹ | has positive influence on maintaining the cytostatic activity | 49.1 | 592.8 | essentially influences the cytostatic activity | 97.1 ± 20.9 nM | 882 ± 68 nM | 0.0705 µg/mL (≈ 0.13 µM) | – | 19 ± 3.3 nM | 38 ± 7.6 nM | 16 ± 1 nM | 54.7 | 12.1 µg/mL (≈ 22.2 µM) | 0.224 µg/mL (≈ 0.413 µM) | 932 ± 145 nM | 181.2 | IC50 ([2]; Homo sapiens, HL60/vinc, 96 h continuous exposure, read-out: HL60VINC IC50): 734 ± 72 nM; RI resistance index HL60VINC ([2]; IC50(resistant cells)/IC50(sensitive cells), 96 h): 77.3; IC50 [5, 26]: 9.5 ± 2 nM; IC50 [9, 25]: 9480 ± 1300 nM; IC50 [9, 26]: 1860 ± 143 nM; RI resistance index HL60/DX ([9]; 96 h): 195.7; IC50 ([19]; 72 h continuous exposure): 13.6 µg/mL (≈ 25 µM); IC50 ([10]; Homo sapiens): 106 ± 7 nM; IC50 ([11]; Homo sapiens, HT-29): 64.5 ± 19.2 nM; IC50 ([13]; Homo sapiens, LNCaP): 22.4 ± 1.9 nM
– | N.N.[Cl][Pt][Cl] [Cisplatina] | – | – | – | – | – | – | – | – | – | – | 0.3 | – | – | – | 1.6 | – | – | – | 1.5 | IC50 MES-SA [14]: 2.26 ± 0.58 µg/mL; IC50 CEM/C2 ([15]; 72 h continuous exposure): 0.44 ± 0.19 µg/mL; IC50 HL60 [16]: 0.22 ± 0.12 µg/mL; IC50 LoVo/DX ([17]; 72 h continuous exposure): 2.51 ± 0.38 µg/mL; IC50 LoVo [18]: 1.59 ± 0.31 µg/mL; IC50 MES-SA/DX5 ([19]; 72 h continuous exposure): 3.29 ± 0.15 µg/mL; IC50 CCRF-CEM [20]: 1.44 ± 0.49 µg/mL; IC50 HL60/MX2 ([21]; 72 h continuous exposure): 0.56 ± 0.30 µg/mL; RI HL60 HL60/MX2 [21]: 2.5

Compound | IC50 [6] | RI resistance index HT29/MIT [1] | RI resistance index HL60/VINC [2, 22] | Kapp relative constant of DNA-compound bonding [6] | Effect of blocking MDR-1 pump with cyclosporine A (CSA) on cytostatic activity [7] | RI resistance index MCF7/DX [8] | RI resistance index HL60/DX ([9]; HL60/DX vs HL60, 72 h) | Effect of MRP protein inhibitor (BSO) on cytostatic activity [12] | IC50 ([1]; Homo sapiens, HT-29) | IC50 [2, 23] | IC50 [14] | RI CCRF-CEM CEM/C2 [15] | IC50 ([3]; Homo sapiens, MCF7) | IC50 ([4]; Homo sapiens, DU-145) | IC50 [5, 24] | RI LoVo LoVo/DX [17] | IC50 ([17]; 72 h continuous exposure) | IC50 [18] | IC50 ([8]; Homo sapiens, MCF7/DX) | RI MES-SA MES-SA/DX5 [19] | further results
O=C1c2c(O)ccc(O)c2C(=O)c2c(NCCNCCO)ccc(NCCNCCO)c21 [Mitoxantrone, 1,4-dihydroxy-5,8-bis[2-(2-hydroxyethylamino)ethylamino]-9,10-anthracenodione, reference compound] | 48 ± 4 nM | 74.9 | 31.3 | 2.61e+08 M⁻¹ | has positive influence on maintaining the cytostatic activity | 63.6 | 1633.8 | essentially influences the cytostatic activity | 854 ± 158 nM | 65.7 ± 6.7 nM | 0.23 ± 0.121 µg/mL (≈ 0.517 µM) | 1.1 | 7.4 ± 1.9 nM | 8.5 ± 1.5 nM | 2.1 ± 0.2 nM | 9.5 | 2.09 ± 0.519 µg/mL (≈ 4.7 µM) | 0.22 ± 0.067 µg/mL (≈ 0.495 µM) | 471 ± 160 nM | 2.9 | IC50 ([15]; Homo sapiens, CEM/C2, 72 h continuous exposure): 0.0028 µg/mL (≈ 0.0063 µM); IC50 ([16]; Homo sapiens, HL-60, read-out: IC50 HL60): 0.0083 µg/mL (≈ 0.0187 µM); IC50 [9, 25]: 3430 ± 661 nM; IC50 ([19]; 72 h continuous exposure): 0.66 ± 0.059 µg/mL (≈ 1.48 µM); IC50 ([10]; Homo sapiens): 18.6 ± 3.8 nM; IC50 ([11]; Homo sapiens, HT-29): 11.4 ± 3.9 nM; IC50 ([20]; Homo sapiens, CCRF-CEM): 0.0025 µg/mL (≈ 0.00562 µM); IC50 ([21]; Homo sapiens, HL60/MX2, 72 h continuous exposure): 0.356 µg/mL (≈ 0.801 µM); RI HL60 HL60/MX2 [21]: 42.9; IC50 ([13]; Homo sapiens, LNCaP): 7.4 ± 1.1 nM
